Literature values in patent US11802256B2, “Method for extracting palmitoleic acid from macadamia integrifolia and use thereof” (SOUTHWEST FORESTRY UNIVERSITY, priority 2021, dated 2023).

How the values were obtained:
tyrosinase = target: T1, tyrosinase (Mus musculus, UniProt P11344); details: mouse melanocytes, at a protein level
T1 construct: host or cells: mouse melanocytes / mouse melanoma cells (endogenous)
T1 sequence (P11344 19-533): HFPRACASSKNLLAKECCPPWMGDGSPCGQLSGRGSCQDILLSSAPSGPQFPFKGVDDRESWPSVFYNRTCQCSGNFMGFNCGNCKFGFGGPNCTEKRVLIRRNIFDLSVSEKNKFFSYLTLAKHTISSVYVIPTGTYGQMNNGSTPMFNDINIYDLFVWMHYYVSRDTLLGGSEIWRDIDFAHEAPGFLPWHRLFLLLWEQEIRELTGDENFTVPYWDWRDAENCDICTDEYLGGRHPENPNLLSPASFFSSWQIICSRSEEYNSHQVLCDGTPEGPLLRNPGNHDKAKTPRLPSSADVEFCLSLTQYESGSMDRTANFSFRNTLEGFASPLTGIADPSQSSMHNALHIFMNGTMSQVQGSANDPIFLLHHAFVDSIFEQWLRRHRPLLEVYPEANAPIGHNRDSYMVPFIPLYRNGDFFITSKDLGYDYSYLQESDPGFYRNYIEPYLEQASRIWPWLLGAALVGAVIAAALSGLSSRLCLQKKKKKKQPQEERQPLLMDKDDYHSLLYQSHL

tyrosinase activity (tyrosinase): inhibits tyrosinase activity
Structure (SMILES): CCCCCC/C=C\CCCCCCCC(=O)O [palmitoleic acid]
inhibitory effect on melanin production (mouse melanoma cells): strong inhibitory effect
